Test system: 253994-281-T-J1-PDC KRAS-mutant spheroids with HUVEC/MSC, viability
Assay: Anticancer human tumor 253994-281-T-J1-PDC patient-derived colorectal carcinoma cell line growth inhibition [KRAS2]
Details: for IC50: curve of first compound; for viability, T/C: stronger effect = lower value
Outline: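 Combination screen of spheroid viability in tumor-cell co-cultures with endothelial (HUVEC) and mesenchymal stem cell stroma. Each agent was tested in half-log dilutions, topping at clinical Cmax or at 10 microM without a known Cmax.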

[1] = second compound 0.1 µM, first compound 0.000316 µM
[2] = second compound 0.1 µM, first compound 0.001 µM
[3] = second compound 0.1 µM, first compound 0.00316 µM
[4] = second compound 0.1 µM, first compound 0.01 µM
[5] = second compound 0.1 µM, first compound 0.0316 µM
[6] = second compound 0.1 µM, first compound 0.1 µM
[7] = second compound 0.316 µM, first compound 0.000316 µM
[8] = second compound 0.316 µM, first compound 0.001 µM
[9] = second compound 0.316 µM, first compound 0.00316 µM
[10] = second compound 0.316 µM, first compound 0.01 µM
[11] = second compound 0.316 µM, first compound 0.0316 µM
[12] = second compound 0.316 µM, first compound 0.1 µM
[13] = second compound 1 µM, first compound 0.000316 µM
[14] = second compound 1 µM, first compound 0.001 µM
[15] = second compound 1 µM, first compound 0.00316 µM
[16] = second compound 1 µM, first compound 0.01 µM
[17] = second compound 1 µM, first compound 0.0316 µM
[18] = second compound 1 µM, first compound 0.1 µM
[19] = second compound 3.16 µM, first compound 0.000316 µM
[20] = second compound 3.16 µM, first compound 0.001 µM
[21] = second compound 3.16 µM, first compound 0.00316 µM
[22] = second compound 3.16 µM, first compound 0.01 µM
[23] = second compound 3.16 µM, first compound 0.0316 µM
[24] = second compound 3.16 µM, first compound 0.1 µM
[25] = second compound 10 µM, first compound 0.000316 µM
[26] = second compound 10 µM, first compound 0.001 µM
[27] = second compound 10 µM, first compound 0.00316 µM
[28] = second compound 10 µM, first compound 0.01 µM
[29] = second compound 10 µM, first compound 0.0316 µM
[30] = second compound 10 µM, first compound 0.1 µM
[31] = second compound 0.1 µM, first compound 0.0001 µM
[32] = second compound 0.316 µM, first compound 0.0001 µM
[33] = second compound 1 µM, first compound 0.0001 µM
[34] = second compound 3.16 µM, first compound 0.0001 µM
[35] = second compound 0.1 µM, first compound 0.316 µM
[36] = second compound 0.1 µM, first compound 1 µM
[37] = second compound 0.1 µM, first compound 3.16 µM
[38] = second compound 0.1 µM, first compound 10 µM
[39] = second compound 0.316 µM, first compound 0.316 µM
[40] = second compound 0.316 µM, first compound 1 µM
[41] = second compound 0.316 µM, first compound 3.16 µM
[42] = second compound 0.316 µM, first compound 10 µM
[43] = second compound 1 µM, first compound 0.316 µM
[44] = second compound 1 µM, first compound 1 µM
[45] = second compound 1 µM, first compound 3.16 µM
[46] = second compound 1 µM, first compound 10 µM
[47] = second compound 3.16 µM, first compound 0.316 µM
[48] = second compound 3.16 µM, first compound 1 µM
[49] = second compound 3.16 µM, first compound 3.16 µM
[50] = second compound 3.16 µM, first compound 10 µM
[51] = second compound 10 µM, first compound 0.316 µM
[52] = second compound 10 µM, first compound 1 µM
[53] = second compound 10 µM, first compound 3.16 µM
[54] = second compound 10 µM, first compound 10 µM
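Note: spheroids exposed to agents for seven days before readout.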
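Throughout, for viability, T/C: percent of DMSO vehicle control viability.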

Cn1ncnc1[C@H]1c2n[nH]c(=O)c3cc(F)cc(c23)N[C@@H]1c1ccc(F)cc1 + CNCc1ccccc1-c1csc(C(C)Nc2nc(C)nc3cc(OC)c(OC)cc23)c1
IC50 (second compound 0.1 µM): > 100 nM
IC50 (second compound 0.316 µM): > 100 nM
IC50 (second compound 1 µM): > 100 nM
IC50 (second compound 3.16 µM): < 0.316 nM
IC50 (second compound 10 µM): < 0.316 nM
viability, T/C [1]: 103%
viability, T/C [2]: 108%
viability, T/C [3]: 114%
viability, T/C [4]: 84.5%
viability, T/C [5]: 110%
viability, T/C [6]: 99.8%
viability, T/C [7]: 93.2%
viability, T/C [8]: 96.4%
viability, T/C [9]: 105%
viability, T/C [10]: 94.5%
viability, T/C [11]: 108%
viability, T/C [12]: 79.5%
viability, T/C [13]: 94.4%
viability, T/C [14]: 91.9%
viability, T/C [15]: 87.4%
viability, T/C [16]: 94.3%
viability, T/C [17]: 92.3%
viability, T/C [18]: 78.5%
viability, T/C [19]: 28.7%
viability, T/C [20]: 41.5%
viability, T/C [21]: 30.3%
viability, T/C [22]: 38.9%
viability, T/C [23]: 28.2%
viability, T/C [24]: 34.9%
viability, T/C [25]: 0.15%
viability, T/C [26]: 0.19%
viability, T/C [27]: 0.15%
viability, T/C [28]: 0.14%
viability, T/C [29]: 0.15%
viability, T/C [30]: 0.24%

CC(=O)Nc1cccc(-n2c(=O)n(C3CC3)c(=O)c3c(Nc4ccc(I)cc4F)n(C)c(=O)c(C)c32)c1 + C=CC(=O)N1CCN(c2nc(OCC3CCCN3C)nc3c2CCN(c2cccc4cccc(C)c24)C3)CC1CC#N
IC50 (second compound 0.0316 µM): 1.57 nM
IC50 (second compound 0.1 µM): 0.98 nM
IC50 (second compound 0.316 µM): 0.66 nM
IC50 (second compound 1 µM): 0.616 nM
IC50 (second compound 3.16 µM): < 0.1 nM
viability, T/C (second compound 0.0316 µM, first compound 0.0001 µM): 86.7%
viability, T/C (second compound 0.0316 µM, first compound 0.000316 µM): 84.6%
viability, T/C (second compound 0.0316 µM, first compound 0.001 µM): 66%
viability, T/C (second compound 0.0316 µM, first compound 0.00316 µM): 24.7%
viability, T/C (second compound 0.0316 µM, first compound 0.01 µM): 12%
viability, T/C (second compound 0.0316 µM, first compound 0.0316 µM): 6.91%
viability, T/C [31]: 72.5%
viability, T/C [1]: 76.9%
viability, T/C [2]: 47%
viability, T/C [3]: 22.2%
viability, T/C [4]: 14.6%
viability, T/C [5]: 6.68%
viability, T/C [32]: 74.9%
viability, T/C [7]: 64.7%
viability, T/C [8]: 41.4%
viability, T/C [9]: 20.9%
viability, T/C [10]: 9.84%
viability, T/C [11]: 4.12%
viability, T/C [33]: 78.9%
viability, T/C [13]: 68%
viability, T/C [14]: 34.6%
viability, T/C [15]: 23.4%
viability, T/C [16]: 8.81%
viability, T/C [17]: 4.05%
viability, T/C [34]: 23.4%
viability, T/C [19]: 11.8%
viability, T/C [20]: 31.7%
viability, T/C [21]: 3.64%
viability, T/C [22]: 0.37%
viability, T/C [23]: 1.21%

O=C(c1cc(Cc2n[nH]c(=O)c3ccccc23)ccc1F)N1CCN(C(=O)C2CC2)CC1 + CC1OCC2(CCN(c3cnc(Sc4ccnc(N)c4Cl)c(N)n3)CC2)C1N
IC50 (second compound 0.1 µM): > 10000 nM
IC50 (second compound 0.316 µM): > 10000 nM
IC50 (second compound 1 µM): > 10000 nM
IC50 (second compound 3.16 µM): < 31.6 nM
IC50 (second compound 10 µM): 655 nM
viability, T/C [5]: 99%
viability, T/C [6]: 81.4%
viability, T/C [35]: 93.7%
viability, T/C [36]: 90.7%
viability, T/C [37]: 84.2%
viability, T/C [38]: 95.5%
viability, T/C [11]: 79.8%
viability, T/C [12]: 65.7%
viability, T/C [39]: 62.9%
viability, T/C [40]: 120%
viability, T/C [41]: 84.6%
viability, T/C [42]: 79.5%
viability, T/C [17]: 93.3%
viability, T/C [18]: 94.1%
viability, T/C [43]: 93.2%
viability, T/C [44]: 81%
viability, T/C [45]: 80.2%
viability, T/C [46]: 90.7%
viability, T/C [23]: 52.8%
viability, T/C [24]: 46.2%
viability, T/C [47]: 46.5%
viability, T/C [48]: 48.4%
viability, T/C [49]: 45.6%
viability, T/C [50]: 57.6%
viability, T/C [29]: 47.2%
viability, T/C [30]: 45.5%
viability, T/C [51]: 115%
viability, T/C [52]: 38.8%
viability, T/C [53]: 31.6%
viability, T/C [54]: 30.4%

CC(=O)Nc1cccc(-n2c(=O)n(C3CC3)c(=O)c3c(Nc4ccc(I)cc4F)n(C)c(=O)c(C)c32)c1 + COc1cc2nc(C)nc(NC(C)c3cc(N)cc(C(F)(F)F)c3)c2cc1OC1CCOC1
IC50 (second compound 0.1 µM): 0.473 nM
IC50 (second compound 0.316 µM): 0.318 nM
IC50 (second compound 1 µM): 0.331 nM
IC50 (second compound 3.16 µM): 0.154 nM
IC50 (second compound 10 µM): 0.173 nM
viability, T/C [31]: 82.8%
viability, T/C [1]: 60.4%
viability, T/C [2]: 30.9%
viability, T/C [3]: 14.4%
viability, T/C [4]: 10.5%
viability, T/C [5]: 5.47%
viability, T/C [32]: 68%
viability, T/C [7]: 50.7%
viability, T/C [8]: 27.9%
viability, T/C [9]: 14.8%
viability, T/C [10]: 10.7%
viability, T/C [11]: 5.1%
viability, T/C [33]: 59.9%
viability, T/C [13]: 51.7%
viability, T/C [14]: 23.5%
viability, T/C [15]: 11.6%
viability, T/C [16]: 9.28%
viability, T/C [17]: 4.8%
viability, T/C [34]: 59.7%
viability, T/C [19]: 34%
viability, T/C [20]: 20.2%
viability, T/C [21]: 10.6%
viability, T/C [22]: 8.21%
viability, T/C [23]: 4.13%
viability, T/C (second compound 10 µM, first compound 0.0001 µM): 74.6%
viability, T/C [25]: 21.5%
viability, T/C [26]: 13.6%
viability, T/C [27]: 8.98%
viability, T/C [28]: 5.81%
viability, T/C [29]: 2.33%

CC1(C)CCC(CN2CCN(c3ccc(C(=O)NS(=O)(=O)c4ccc(NCC5CCOCC5)c([N+](=O)[O-])c4)c(Oc4cnc5[nH]ccc5c4)c3)CC2)=C(c2ccc(Cl)cc2)C1 + CC1OCC2(CCN(c3cnc(Sc4ccnc(N)c4Cl)c(N)n3)CC2)C1N
IC50 (second compound 0.1 µM): > 10000 nM
IC50 (second compound 0.316 µM): > 10000 nM
IC50 (second compound 1 µM): > 10000 nM
IC50 (second compound 3.16 µM): 2820 nM
IC50 (second compound 10 µM): < 31.6 nM
viability, T/C [5]: 88.2%
viability, T/C [6]: 100%
viability, T/C [35]: 85.4%
viability, T/C [36]: 103%
viability, T/C [37]: 81.6%
viability, T/C [38]: 72.9%
viability, T/C [11]: 77%
viability, T/C [12]: 82.1%
viability, T/C [39]: 79.9%
viability, T/C [40]: 80.4%
viability, T/C [41]: 72%
viability, T/C [42]: 51.1%
viability, T/C [17]: 89.5%
viability, T/C [18]: 72.9%
viability, T/C [43]: 72.5%
viability, T/C [44]: 79.3%
viability, T/C [45]: 65.7%
viability, T/C [46]: 49.5%
viability, T/C [23]: 66.2%
viability, T/C [24]: 67.7%
viability, T/C [47]: 63.7%
viability, T/C [48]: 61%
viability, T/C [49]: 48.7%
viability, T/C [50]: 35%
viability, T/C [29]: 38.3%
viability, T/C [30]: 36.6%
viability, T/C [51]: 47.5%
viability, T/C [52]: 47.1%
viability, T/C [53]: 35%
viability, T/C [54]: 4.16%

Source: PubChem BioAssay AID1963874 (Molecular Pharmacology Branch, DTP, NCI, 2024)
